Literature values as cited in patent US20190167706A1, “Solid Pharmaceutical Composition Comprising Amorphous Sofosbuvir” (Sandoz AG, priority 2016, published 2019).

Row | Structure (SMILES) | moisture stability: deliquescence under stress conditions (40° C. and a relative humidity (RH) of 75%) | relative humidity at which the substance deliquesces (amorphous form, compared to crystalline forms)
1 | CC(C)OC(=O)[C@H](C)N[P@](=O)(OC[C@H]1O[C@@H](n2ccc(=O)[nH]c2=O)[C@](C)(F)[C@@H]1O)Oc1ccccc1 [sofosbuvir, (S)-isopropyl 2-(((S)-(((2R,3R,4R,5R)-5-(2,4-dioxo-3,4-dihydropyrimidin-1(2H)-yl)-4-fluoro-3-hydroxy-4-methyltetrahydrofuran-2-yl)methoxy)(phenoxy)phosphoryl)amino)propanoate] | deliquesces after a few hours | –
2 | CC(C)OC(=O)[C@H](C)N[P@](=O)(OC[C@H]1O[C@@H](n2ccc(=O)[nH]c2=O)[C@](C)(F)[C@@H]1O)Oc1ccccc1 [Amorphous sofosbuvir, (S)-isopropyl 2-(((S)-(((2R,3R,4R,5R)-5-(2,4-dioxo-3,4-dihydropyrimidin-1(2H)-yl)-4-fluoro-3-hydroxy-4-methyltetrahydrofuran-2-yl)methoxy)(phenoxy)phosphoryl)amino)propanoate] | – | above 50%
